Measured values from patent US20240271099A1, “METHOD FOR GENERATING HIGHLY FUNCTIONAL HEPATOCYTES BY DIFFERENTIATING HEPATOBLASTS” (INSTITUT NATIONAL DE LA SANTÉ ET DE LA RECHERCHE MÉDICALE, priority 2021, published 2024).

Test system: Glucose-6-Phosphatase activity
Assay: Glycogenolysis (glucose release after glucagon)
Type: cell-based, human
Conditions: 3D spheroids, 10 nmol/L glucagon, 3 h
Method: Glycogen Glucose metabolism. iHeps in 2D and 3D culture were investigated to assess the glycogen storage and glucose homeostasis regulation. Briefly, at specific time points along the 2D and 3D cultures, cells were treated for 3 h with a homemade low-glucose medium with or without 10 nmol/L glucagon (Sigma-Aldrich) to induce glucose release from the glycogen storage. Media samples were then collected and glucose concentration was determined using the High Sensitivity Glucose Assay Kit (Sigma). Periodic acid-Schiff (PAS) staining was then carried out on 2D and 8 μm cryosections of the very same samples. Specimens were fixed for 10 minutes at room temperature with 4% formol then treated with 1% periodic acid solution (Sigma-Aldrich) for 10 minutes. After washing, slides were immersed in Schiff's reagent (Fisher Scientific) for 30 minutes at RT. Before counterstaining with Mayer's Hematoxylin (Sigma), samples were washed carefully with Scott's tap water.
To investigate further, 3D specimens (iHeps and PHHs) were incubated for 4 h with 25 mM D-Glucose and 100 nM insulin to mimic hyperglycemia. Glycogen synthesis and storage were then determined using the Periodic Acid-Schiff (PAS) Staining Kit (Sigma-Aldrich) as described above. […] The media were then collected, and glucose levels determined using the High Sensitivity Glucose Assay Kit (Sigma).

With glucagon the “glycogenolysis, times higher than basal release (w/o glucagon)” value was 3 times.
